Assay results taken from patent US10183936B2, “Hepatitis B core protein allosteric modulators” (priority 2014, dated 2019).

What was measured:
[1] = test system: HBV viral production in AD38 cells; assay: Viral load production in AD38 cells by quantitative PCR of the HBV core sequence in supernatant; type: cell-based; settings: 10 μM compound, 6 days at 37° C., viral load in supernatant compared against DMSO control wells; for activity at 10 µM: Hepatitis B virus, 144 h, read-out: AD38 Viral Load (CpAM/DMSO %) at 10 μM
In short: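 Read-out is TaqMan qPCR of the HBV core region in supernatant, quantitated against standards and referenced to DMSO controls (≥3 per plate). Cells: AD38 at 50,000/well, exposed to compound (added as 10× stock in 10% DMSO) for 6 days at 37° C.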

AD38 cells = assay: Viability of AD38 cells (Promega CellTiter-Glo) at the end of compound treatment; type: cell-based; settings: 10 μM compound, 6 days, luminescence normalized against DMSO control wells (controls being 100%)
In short: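 Luminescent CellTiter-Glo read-out, taken after supernatant was swapped for tetracycline-free 2% FBS medium with 1% DMSO, gave percent viability relative to DMSO controls set at 100%. Cells were plated at 50,000/well and exposed to compound, added as a 10× stock in 10% DMSO, for 6 days at 37° C.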

Compound	activity at 10 µM [1] [%]	AD38 Viability Normalized Result (CPAM/DMSO %) at 10 μM (AD38 cells) [%]	AD38 Viral Load (CpAM/DMSO %) at 10 μM [1] [%]
O=C(NC[C@@H](CO)c1ccccc1)c1ccc2c(c1)NC(=O)c1ccccc1S2 [Compound 1259]	11	84	–
CCc1cccc(CCNC(=O)c2ccc3c(c2)NC(=O)c2ccccc2S3)c1 [Compound 1260]	8	100	–
O=C(NCc1cnco1)c1ccc2c(c1)NC(=O)c1ccccc1S2 [Compound 1264]	8	104	–
O=C(NCCc1ccc(-n2ccnn2)cc1)c1ccc2c(c1)NC(=O)c1ccccc1S2 [Compound 1266]	1	74	–
O=C(NCCc1ccc(-n2cnnc2)cc1)c1ccc2c(c1)NC(=O)c1ccccc1S2 [Compound 1267]	77	93	–
O=C(NC[C@H](C(=O)O)c1ccccc1)c1ccc2c(c1)NC(=O)c1ccccc1S2 [Compound 1268, (R)-3-(11-oxo-10, 11-dihydrodibenzo [b,f] [1,4]thiazepine-8-carboxamido)-2-phenylpropanoic acid]	77	106	–
O=C(NC[C@@H](C(=O)O)c1ccccc1)c1ccc2c(c1)NC(=O)c1ccccc1S2 [Compound 1269, (S)-3-(11-oxo-10, 11-dihydrodibenzo [b,f] [1,4]thiazepine-8-carboxamido)-2-phenylpropanoic acid]	63	107	–
O=C(NCCc1cc[nH]n1)c1ccc2c(c1)NC(=O)c1ccccc1S2 [Compound 1270]	1	94	–
COc1ccc2c(c1)Sc1ccc(C(=O)NCCC3CCCCC3)cc1NC2=O [Compound 1271]	6	100	–
COc1ccc2c(c1)C(=O)Nc1cc(C(=O)NCCC3CCCCC3)ccc1S2 [Compound 1272]	24	102	–
Cc1ccc2c(c1)Sc1ccc(C(=O)NCCC3CCCCC3)cc1NC2=O [Compound 1273]	6	96	–
Cc1ccc2c(c1)C(=O)Nc1cc(C(=O)NCCC3CCCCC3)ccc1S2 [Compound 1274]	11	88	–
Cc1cc2c(cc1C(=O)NCCC1CCCCC1)NC(=O)c1ccccc1S2 [Compound 1275]	3	93	–
NC(=O)c1ccc2c(c1)Sc1ccc(C(=O)NCCC3CCCCC3)cc1NC2=O [Compound 1276]	24	89	–
CN(C)C(=O)c1ccc2c(c1)Sc1ccc(C(=O)NCCC3CCCCC3)cc1NC2=O [Compound 1278, N-(2-cyclohexylethyl)-N^3,N^3-dimethyl-11-oxo-10, 11-dihydrodibenzo [b,f] [1,4] thiazepine-3,8-dicarboxamide]	–	88	3
NC(=O)c1ccc2c(c1)Sc1ccc(C(=O)NCCc3ccccc3)cc1NC2=O [Compound 1279]	55	84	–

Compound	activity at 10 µM [1] [%]	AD38 Viability Normalized Result (CPAM/DMSO %) at 10 μM (AD38 cells) [%]	AD38 Viral Load (CpAM/DMSO %) at 10 μM [1] [%]
CNC(=O)c1ccc2c(c1)Sc1ccc(C(=O)NCCc3ccccc3)cc1NC2=O [Compound 1280, N^3-methyl-11-oxo-N^8-phenethyl-10, 11-dihydrodibenzo [b,f] [1,4] thiazepine-3,8-dicarboxamide]	74	94	–
CN(C)C(=O)c1ccc2c(c1)Sc1ccc(C(=O)NCCc3ccccc3)cc1NC2=O [Compound 1281, N^3,N^3-dimethyl-11-oxo-N^8-phenethyl-10, 11-dihydrodibenzo [b,f] [1,4] thiazepine-3,8-dicarboxamide]	29	86	–
O=C(O)c1ccc2c(c1)Sc1ccc(C(=O)NCCC3CCCCC3)cc1NC2=O [Compound 1282, 8-((2-cyclohexylethyl)carbamoyl)-11-oxo-10, 11-dihydrodibenzo [b, f] [1,4] thiazepine-3-carboxylic acid]	102	105	–
CCc1cccc(CNC(=O)c2ccc3c(c2)NC(=O)c2ccccc2S3)c1 [Compound 1283]	1	97	–
O=C(NCCC1CCCCC1)c1ccc2c(c1)NC(=O)c1cc(F)ccc1S2 [Compound 1285]	3	108	–
Cc1cc(C(=O)NCCC2CCCCC2)cc2c1Sc1ccccc1C(=O)N2 [Compound 1286]	36	114	–
COc1cc2c(cc1C(=O)NCCC1CCCCC1)NC(=O)c1ccccc1S2 [Compound 1287]	11	96	–
O=C1Nc2cc(S(=O)(=O)NCCc3ccccc3)ccc2Sc2ccccc21 [Compound 1289, 11-oxo-N-phenethyl-10, 11-dihydrodibenzo [b,f] [1,4] thiazepine-8-sulfonamide]	40	96	–
O=C(NCCc1cncnc1)c1ccc2c(c1)NC(=O)c1ccccc1S2 [Compound 1290]	33	94	–
O=C(NCCc1ccc(-c2cnn[nH]2)cc1)c1ccc2c(c1)NC(=O)c1ccccc1S2 [Compound 1291]	1	102	–
O=C(NCc1cncnc1)c1ccc2c(c1)NC(=O)c1cc(F)ccc1S2 [Compound 1308]	1	99	–
O=C(NCc1cncs1)c1ccc2c(c1)NC(=O)c1cc(F)ccc1S2 [Compound 1309]	1	107	–
O=C(NCCc1ccccn1)c1ccc2c(c1)NC(=O)c1cc(F)ccc1S2 [Compound 1310]	1	89	–
O=C(NCc1cnco1)c1ccc2c(c1)NC(=O)c1cc(F)ccc1S2 [Compound 1311]	8	95	–
O=C(NCCc1cncnc1)c1ccc2c(c1)NC(=O)c1cc(F)ccc1S2 [Compound 1312]	5	83	–
